Broadly, the Kd is the equilibrium constant for the complex coming apart.

Drawing on PMC7526550, “Allosteric folding correction of F508del and rare CFTR mutants by elexacaftor-tezacaftor-ivacaftor (Trikafta) combination” (JCI Insight, 2020), this text covers Kd for two compounds.

One experiment concerns the target CFTR (F508del-NBD1-1S) (Homo sapiens, UniProt P13569, F494N/DEL508-508). On the set-up: SPR (Biacore T200) steady-state affinity of correctors to immobilized biotinylated CFTR NBD1. Particulars: binder; read-out: ΔF508-NBD1-1S Mean KD. How it is done: (§1) As described in our previous publication ([21]), binding interactions between biotinylated NBD1 constructs (WT-1S-, F508del-1S-, F508del-3S-NBD1; ~30 kDa each) and corrector compounds were examined with a BIACORE T200 system (GE Healthcare Bio-Sciences AB; Control software v2.0 and Evaluation software v1.0). Briefly, neutravidin (2 mg/mL in water, diluted to 50 μg/mL in 10 mM sodium acetate, pH 5.0; Thermo Fisher Scientific) was amine-coupled to S-series CM5 sensors (~12,000 RU per flow cell) at 25°C using filtered (0.2 μm) and degassed HBS-EP buffer (10 mM HEPES, pH 7.4; 150 mM NaCl; 3 mM EDTA; 0.005% [v/v] Tween-20). After subsequent cooling to 4°C (sample chamber and sensor) and equilibration in PBS running buffer (1× PBS pH 7.4 containing 10% [v/v] glycerol, 2 mM MgCl2, 1 mM ATP, 0.05% [v/v] Tween-20), reference (neutravidin only) and active surfaces (100 μg/mL NBD1 constructs in PBS buffer; capture 5000–8000 RU each) were equilibrated in PBS buffer containing 2% (v/v) DMSO at 10 μL/min. The corrector compounds were titrated over reference and NBD1-immobilized surfaces at 25–50 μL/min (1–2 minutes association plus 2–5 minutes dissociation; 2-fold dilution series for all compounds). Between titration series, the surfaces were regenerated at 50 μL/min using two 30-second pulses of solution I (PBS-DMSO buffer containing 1.0 M NaCl and 0.05% [v/v] Empigen [Anatrace]). […]

The target of a further experiment is CFTR (WT-NBD1-1S) (Homo sapiens, UniProt P13569, F494N). The experiment in a line: biochemical. The arrangement: SPR (Biacore T200) steady-state affinity of correctors to immobilized biotinylated CFTR NBD1. How it is done:
as §1

Molecules are shown by their SMILES.

CFTR (WT-NBD1-1S), sequence (P13569 389-678 F494N limits assumed): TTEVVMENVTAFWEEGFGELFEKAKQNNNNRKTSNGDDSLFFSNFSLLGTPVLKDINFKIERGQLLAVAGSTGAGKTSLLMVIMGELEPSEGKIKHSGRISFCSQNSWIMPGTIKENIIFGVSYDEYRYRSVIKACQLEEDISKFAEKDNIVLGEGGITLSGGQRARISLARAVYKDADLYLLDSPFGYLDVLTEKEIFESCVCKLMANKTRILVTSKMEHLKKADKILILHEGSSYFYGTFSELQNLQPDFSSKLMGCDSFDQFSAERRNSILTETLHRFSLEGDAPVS
CFTR (F508del-NBD1-1S), sequence (P13569 with tags, fused parts or gaps F494N/DEL508-508 limits assumed): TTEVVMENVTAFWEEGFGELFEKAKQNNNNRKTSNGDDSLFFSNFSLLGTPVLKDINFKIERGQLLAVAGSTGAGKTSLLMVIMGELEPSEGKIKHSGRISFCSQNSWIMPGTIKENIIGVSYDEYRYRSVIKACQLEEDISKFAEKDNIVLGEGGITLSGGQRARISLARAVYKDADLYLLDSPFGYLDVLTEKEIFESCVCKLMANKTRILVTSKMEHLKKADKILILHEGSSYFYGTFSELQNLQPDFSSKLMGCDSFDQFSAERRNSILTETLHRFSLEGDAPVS

As to `CC(C)(CO)c1cc2cc(NC(=O)C3(c4ccc5c(c4)OC(F)(F)O5)CC3)c(F)cc2n1C[C@@H](O)CO` [VX-661, tezacaftor], the Kd at CFTR (F508del-NBD1-1S) and on CFTR (WT-NBD1-1S) was more than 200 µM in each case.
Consider `Cc1nn(C)cc1S(=O)(=O)NC(=O)c1ccc(-n2ccc(OCC(C)(C)C(F)(F)F)n2)nc1N1C[C@@H](C)CC1(C)C` [compound 20, VX-445], for which the Kd is 82 µM on CFTR (F508del-NBD1-1S) and 76 µM at CFTR (WT-NBD1-1S).
